Experimental data reported in patent US20090186838A1, “Amphotericin Derivatives” (Eidgenössische Technische Hochschule Zürich, priority 2006, published 2009).
≈ marks a conversion by molar mass, not a printed value. Like-named read-outs stand apart in the source and are kept apart here.

Legend:
[1] = system: Saccharomyces cerevisiae wild type BY4741; assay: MIC determination in Saccharomyces cerevisiae wild type BY4741; assay type: cell-based; settings: for MIC: read-out: MIC; for times more active than AmB (MIC): relative to AmB
Protocol: (§1) In Vitro Antifungal Activity. MIC values for various strains were determined in accordance with the standard protocol from the National Committee of Clinical Laboratory Standards but using YEPD liquid medium instead of RPMI-1640 medium (National Committee of Clinical Laboratory Standards (Reference Method for Broth Dilution Antifungal Susceptibility Testing of Yeast, M27-A2, Approved Standard-Second Edition, Volume 22, Number 15, 1995). AmB was used as a reference. The strains were cultivated overnight in 5 mL YEPD liquid medium at 30 to 37° C. (30° C. for the strain BY4741; 37° C. for the strain DSY1764) with constant shaking. The saturated cultures were diluted to an ODB600 of 0.1 (3×10P^7 cells/mL). Using 24 wells plate, each well was prepared by adding 1% (12 μL) of DMSO solution of the tested polyene macrolide with 1% (12 μL) yeast cells solution and completed with YEPD (1.176 mL). The plates were sealed with Parafilm and then incubated for 18 to 36 hours at 30 to 37° C. (18 hours at 30° C. for the strain BY4741; 36 hours at 37° C. for the strain DSY1764). The optical density was read at 600 nm using 1.5 mL cuvettes. The MIC value was defined as the drug concentration needed to inhibit growth, less than 5% compared to a drug-free culture.
MIC values of various polyene macrolides of the invention in Saccharomyces cerevisiae wild type BY4741, a derivative of S288C, (with AmB as a reference) were determined as described hereinabove.
Based on the remarkable performance observed with the Diamine-AmB conjugate similar modifications of the aminosugar moiety were made on other polyene macrolides, such as for example Nystatin (1b) and Pimaricin (1c). The antifungal activity of these nystatin and pimaricin conjugates bearing two aminopropyl side chains was measured using Saccharomyces cerevisiae wild type BY4741.

DSY-562 C. glabrata CI = assay: MIC determination in Candida strain DSY-562; assay type: cell-based; settings: Nakaseomyces glabratus
Protocol: as §1
(§2) MIC values of the polyene macrolides 3, 9 and 10 (Diamine-AmB and its ester and diamide derivative, respectively) in various Candida strains including an AmB-resistant strain C. albicans (DSY1764, with the genotype erg3AΔ::hisG/erg3BΔ::hisG erg11Δ::hisG/erg11Δ::hisG-URA3-hisG) were determined.

DSY-565 C. glabrata CI = assay: MIC determination in Candida strain DSY-565; assay type: cell-based; settings: Nakaseomyces glabratus
Protocol: as §1, §2

[2] = K+ efflux assay, ergosterol containing vesicles; settings: lower concentration, 0.1 μM (FIG. 3a,c,e,g)
Protocol: (§3) FIG. 3. K^+ efflux from vesicles (LUVET100) prepared from […] (POPC) (solid line) or POPC with sterols (dotted line) for ergosterol and (broken line) for cholesterol caused by AmB (1a) (FIGS. 3a,b) and AmB diamine 3 (FIG. 3c,d), AmB diamine ester 9 (FIG. 3e,f) and AmB diamine amide 10 (FIG. 3g,h), added in DMSO to a suspension of vesicles to give final concentrations of 0.1 μM (FIG. 3a,c,e,g) and 1.0 μM (FIG. 3b,d,f,h).
K+ efflux assay. The K^+ efflux measurements were made following a previously described procedure (Zumbuehl, A. et al., Angew. Chem. Int. Ed. 2004, 43, 5181-5185; Zumbuehl, A. et al., Org. Lett. 2004, 6, 3683-3686). The appropriate liposome suspensions were prepared using POPC, cholesterol and ergosterol. Then the liposomes were sized by extrusion through two 400 nm, 200 nm, and finally 100 nm pore size membrane. The resultant “100 nm” unilamellar liposomes were dialyzed against 600 mL of 150 mM NaCl, 5 mM HEPES (pH 7.4) buffer. After, the suspension was diluted with 150 mM NaCl, 5 mM HEPES (pH 7.4) buffer to 1 mM overall lipid concentration (phospholipids+sterols). For each efflux measurement 10 mL of this liposome suspension was placed in a small beaker. Potentiometric measurements were performed with a 16-channel electrode monitor in magnetically stirred solutions at ambient temperature. The reference electrode was a Metrohm double junction Ag/AgCl reference electrode with 3 M KCl as reference electrolyte and 1 M LiOAc as bridge electrolyte. […] The resulting reading (taken after 0.5 h) was used to quantify the 100% K+-release.
As described hereinbefore differential interaction between ergosterol found in fungal membranes and cholesterol in mammalian cells is considered the basis for the selectivity of AmB (1a) as an antifungal agent. The preferential stabilization of ion channel formation in the membrane by ergosterol ultimately results in electrolyte leakage which can be conveniently measured by K^+ efflux from sterol containing vesicles. […]

[3] = K+ efflux assay, cholesterol containing vesicles; settings: for K+ efflux with cholesterol-containing vesicles: high concentration, 1.0 μM (FIG. 3b,d,f,h), compared with AmB (1a); for K+ efflux with cholesterol containing vesicles: lower concentration, 0.1 μM (FIG. 3a,c,e,g)
Protocol: as §3
K+ efflux assay. The K^+ efflux measurements were made following a previously described procedure (Zumbuehl, A. et al., Angew. Chem. Int. Ed. 2004, 43, 5181-5185; Zumbuehl, A. et al., Org. Lett. 2004, 6, 3683-3686). The appropriate liposome suspensions were prepared using POPC, cholesterol and ergosterol. Then the liposomes were sized by extrusion through two 400 nm, 200 nm, and finally 100 nm pore size membrane. The resultant “100 nm” unilamellar liposomes were dialyzed against 600 mL of 150 mM NaCl, 5 mM HEPES (pH 7.4) buffer. After, the suspension was diluted with 150 mM NaCl, 5 mM HEPES (pH 7.4) buffer to 1 mM overall lipid concentration (phospholipids+sterols). For each efflux measurement 10 mL of this liposome suspension was placed in a small beaker. Potentiometric measurements were performed with a 16-channel electrode monitor in magnetically stirred solutions at ambient temperature. The reference electrode was a Metrohm double junction Ag/AgCl reference electrode with 3 M KCl as reference electrolyte and 1 M LiOAc as bridge electrolyte. After recording the amphotericin-induced potassium efflux, liposomes were lysed by adding sodium cholate (172 mg). The resulting reading (taken after 0.5 h) was used to quantify the 100% K+-release.
As described hereinbefore differential interaction between ergosterol found in fungal membranes and cholesterol in mammalian cells is considered the basis for the selectivity of AmB (1a) as an antifungal agent. The preferential stabilization of ion channel formation in the membrane by ergosterol ultimately results in electrolyte leakage which can be conveniently measured by K^+ efflux from sterol containing vesicles. To assess the interaction of the polyene macrolide derivatives of the invention with sterols, derivatives 3, 9 and 10 were examined in their ability to lead to K^+ efflux from large unilamellar vesicles (LUV) prepared from POPC (1-palmitoyl-2-oleoyl-sn-glycero-3-phosphocholine) admixed with sterols, mimicking conditions in natural biomembranes (FIG. 3). At high concentration (FIG. 3b,d,f,h), all compounds rapidly induce complete K^+ efflux from vesicles containing ergosterol (dotted line). […] This differentiation between ergosterol and cholesterol is consistent with the observation of reduced hemotoxicity of 3, 9 and 10.

Solubility assay = assay type: physicochemical; settings: for solubility: PBS buffer, pH 7.2, aqueous buffer, kinetic from dmso stock, read-out: Solubility in water
Protocol: Solubility assay. The solubility assay was performed according to Lipinski, C. A. et al Advances Drug Delivery Reviews 2001, 46, 3-26. Typically, a compound of the invention was dissolved in DMSO at a concentration of 10 μg/μl. The so obtained solution was added in […] at 1 min intervals to 2.5 ml PBS buffer solution pH 7.2. These additions correspond to solubility increments of 5 μg/ml to a top value of 65 μg/ml. A total of 14 additions were made and each time increased UV absorbance from light scattering was measured at 600 nm. The precipitation point was calculated from a bilinear curve fit to the Absorbance (y axis) versus μl of DMSO (x axis) plot.
The solubility of the polyene macrolides of the invention in water was tested following the above described protocol. Clearly, all conjugates were more soluble in water then AmB.

[4] = Saccharomyces cerevisiae wild type BY4741, YEPD liquid medium, 18 hours at 30° C.
[5] = Saccharomyces cerevisiae wild type BY4741
[6] = Saccharomyces cerevisiae, Table 3, strain not given, values as in Table 1 (S. cerevisiae BY4741)
[7] = DMSO stock added to PBS buffer solution pH 7.2, precipitation point by light scattering at 600 nm

| Structure (SMILES) | MIC [1, 4] [µM] | times more active than AmB (MIC) [1, 5] [times] | MIC [1, 6] [µM] | MIC (DSY-562 C. glabrata CI) [µM] | MIC (DSY-565 C. glabrata CI) [µM] | K+ efflux with ergosterol containing vesicles [2] | K+ efflux with cholesterol-containing vesicles [3] | K+ efflux with cholesterol containing vesicles [3] | solubility (Solubility assay; [7]) [µg/mL] | Solubility in water (Solubility assay; DMSO stock added to PBS buffer solution pH 7.2, precipitation point by light scattering at 600 nm, listed as Diamine-Amide 10) [µg/mL] | solubility in water compared with AmB (Solubility assay; relative to AmB) |
| --- | --- | --- | --- | --- | --- | --- | --- | --- | --- | --- | --- |
| COC(=O)[C@H]1[C@@H]2C[C@@H](O[C@@H]3O[C@H](C)[C@@H](O)[C@H](N(CCCN)CCCN)[C@@H]3O)/C=C/C=C/C=C/C=C/C=C/C=C/C=C/[C@H](C)[C@@H](O)[C@@H](C)[C@H](C)OC(=O)C[C@H](O)C[C@H](O)CC[C@@H](O)[C@H](O)C[C@H](O)C[C@](O)(C[C@@H]1O)O2 [compound 9, N,N-Di-(3-aminopropyl)-AmB Methyl Ester] | 0.1 (≈ 0.105 µg/mL) | 3 | 0.1 (≈ 0.105 µg/mL) | 0.25 (≈ 0.263 µg/mL) | 0.25 (≈ 0.263 µg/mL) | observed exclusively with the ergosterol containing vesicles | significantly reduced efflux | indistinguishable from background | 22 (≈ 20.9 µM) | – | – |
| C[C@@H]1[C@H](O)[C@@H](C)/C=C/C=C/C=C/C=C/C=C/C=C/C=C/[C@H](O[C@@H]2O[C@H](C)[C@@H](O)[C@H](N(CCCN)CCCN)[C@@H]2O)CC2O[C@](O)(C[C@@H](O)C[C@@H](O)[C@H](O)CC[C@@H](O)C[C@@H](O)CC(=O)O[C@H]1C)C[C@H](O)[C@H]2C(=O)NCCN [compound 10, 16-(N′-(2-Aminoethyl)-carboxamide)-N,N-di-(3-aminopropyl)-AmB] | 0.04 (≈ 0.0432 µg/mL) | 7.5 | 0.04 (≈ 0.0432 µg/mL) | 0.5 (≈ 0.54 µg/mL) | 0.5 (≈ 0.54 µg/mL) | observed exclusively with the ergosterol containing vesicles | significantly reduced efflux | indistinguishable from background | ≤ 40 | 40 (≈ 37 µM) | four times more soluble |
